The test system of assay [1] is MCF-7 (breast cancer cell line). Nature of the assay: MTT cell viability assay, MCF-7. Type of assay: cell-based. The settings on record: Homo sapiens, MCF7, 48 h, read-out: Antiproliferative Activity IC50 ± SEM, MCF-7. Here is the method: (§1) The tested cells were obtained from Shanghai Institute of Biochemistry and Cell Biology of the Chinese Academy of Sciences (Shanghai, China). HeLa and Hep G2 cell lines were cultured in Dulbecco’s modified Eagle’s medium (DMEM; gibco, Life Technologies, Carlsbad, CA, USA) supplemented with 10% fetal bovine serum (FBS; Biological Industries), 100 U/mL penicillin-streptomycin (PS; gibco, Life Technologies, Carlsbad, CA, USA). MCF-7 and A549 cell lines were maintained in RPMI-1640 media (gibco, Life Technologies, Carlsbad, CA, USA) supplemented with 10% FBS and 100 U/mL PS. FaDu cell lines were cultured in minimum essential medium (MEM; Gibco, Life Technologies, Carlsbad, CA, USA) supplemented with 10% FBS and 100 U/mL PS. MCF 10A cell lines were maintained in Mammary MEGM kit (Lonza/Clonetics) supplemented with 100 ng/mL cholera toxin (Sigma, Shanghai, China). Cell lines were grown at 37 °C in a humidified atmosphere of 5% CO2.
(§2) The growth-inhibitory effects against HeLa, Hep G2, MCF-7, FaDu, and A549 cancer cells and normal cell lines MCF 10A were determined by MTT assay. […] Cells were seeded in 96 well plates at a density of 1 × 10^4 cells per well and incubated for 24 h at 37 °C in a humidified atmosphere of 5% CO2. The cells were then incubated with various concentrations of drugs for 48 h in a 5% CO2 incubator at 37 °C. After treatment with 1 mg/mL 3-(4,5-dimethylthiazol-2-yl)-2,5-diphenyltetrazolium bromide (MTT) solution for 4 h, the formazan crystals were dissolved in 100 µL DMSO in each well. Plates were read on a microplate reader (Thermo Varioskan Flash 3001) at 490 nm. The experiment was performed in triplicate. The inhibitory concentration at 50% (IC50) was calculated based on concentration-inhibition relationships via regression using SPSS software (Version 17.0).
For orientation: Formazan colour is commonly taken as a measure of viable cells.

Assay [2] deals with MCF 10A (normal mammary epithelial cell). Nature of the assay: MTT cell viability assay, MCF 10A. It counts as cell-based. The note with it: Homo sapiens, 48 h, normal cells, read-out: Antiproliferative Activity IC50 ± SEM, MCF 10A.
The subject of assay [3] is A549 (epithelial cancer cell line). Nature of the assay: MTT cell viability assay, A549. It counts as cell-based. The settings on record: Homo sapiens, 48 h, read-out: Antiproliferative Activity IC50 ± SEM, A549. Here is the method: as §1, §2
The subject of assay [4] is Hep G2 (hepatocarcinoma cell line). The experiment in a line: MTT cell viability assay, Hep G2. Type of assay: cell-based. The note with it: Homo sapiens, HepG2, 48 h, read-out: Antiproliferative Activity IC50 ± SEM, Hep G2. Here is the method: as §1, §2
Assay [5] concerns HeLa (cervical cancer cell line). The experiment in a line: MTT cell viability assay, HeLa. It counts as cell-based. The note with it: Homo sapiens, 48 h, read-out: Antiproliferative Activity IC50 ± SEM, HeLa. Here is the method: as §1, §2
Assay [6] relates to FaDu (head and neck squamous carcinoma cell line). The experiment in a line: MTT cell viability assay, FaDu. Type of assay: cell-based, human. The settings on record: for IC50: 48 h, MTT, read-out: Antiproliferative Activity IC50 ± SEM, FaDu; for SI: selectivity index: SI = IC50 (MCF 10A)/IC50 (FaDu). As for the experimental part: as §1, §2

Nine compounds from paper PMC6943434, “Novel Homo-Bivalent and Polyvalent Compounds Based on Ligustrazine and Heterocyclic Ring as Anticancer Agents” (Molecules, 2019) can be followed below.

Like-named read-outs stand apart in the source and are kept apart here.

The IC50 is the concentration that gives 50% inhibition.

Regarding `O=C(/C=C/c1ccccc1)NCCOCCOCCNC(=O)/C=C/c1ccccc1` [Compound 9j, (2E,2′E)-N,N′-((Ethane-1,2-Diylbis(Oxy))Bis(Ethane-2,1-Diyl))Bis(3-Phenylacrylamide)], the IC50 in assay [1] was above 20 µM; in assay [2], above 20 µM; in assay [3] it was above 20 µM; in assay [4], above 20 µM; in assay [5], above 20 µM; in assay [6] (Homo sapiens, FaDu) it was above 20 µM.
As to `O=C(/C=C/c1ccccc1)NCCOCCOCCOCCNC(=O)/C=C/c1ccccc1` [Compound 9k, (2E,2′E)-N,N′-(((Oxybis(Ethane-2,1-Diyl))Bis(Oxy))Bis(Ethane-2,1-Diyl))Bis(3-Phenylacrylamide)], the IC50 in assay [1] is above 20 µM; in assay [2] it was above 20 µM; in assay [3], above 20 µM; in assay [4] it was above 20 µM; in assay [5], above 20 µM; in assay [6] (Homo sapiens, FaDu), 4.45 ± 0.208 µM. Moreover, in assay [6], the “SI: selectivity index” value was above 4.50.
As for `O=C(/C=C/c1ccccc1)OCCOCCOCCOC(=O)/C=C/c1ccccc1` [Compound 9l, (Ethane-1,2-Diylbis(Oxy))Bis(Ethane-2,1-Diyl) (2E,2′E)-Bis(3-Phenylacrylate)], the IC50 is above 20 µM in assay [1]; above 20 µM in assay [2]; above 20 µM in assay [3]; above 20 µM in assay [4]; above 20 µM in assay [5]; above 20 µM in assay [6] (Homo sapiens, FaDu).
Regarding `O=C(/C=C/c1ccccc1)OCCOCCOCCOCCOC(=O)/C=C/c1ccccc1` [Compound 9m, ((Oxybis(Ethane-2,1-Diyl))Bis(Oxy))Bis(Ethane-2,1-Diyl) (2E,2′E)-bis(3-Phenylacrylate)], the IC50 is above 20 µM in assay [1]; above 20 µM in assay [2]; above 20 µM in assay [3]; above 20 µM in assay [4]; above 20 µM in assay [5]; above 20 µM in assay [6] (Homo sapiens, FaDu).
Turning to `O=C(NCCCCCCCCCCNC(=O)c1cccnc1)c1cccnc1` [Compound 10e, N,N′-(Decane-1,10-Diyl)Dinicotinamide], the IC50 in assay [1] was above 100 µM; in assay [2] it was 38.6 ± 2.48 µM; in assay [3] it was 2.94 ± 0.25 µM; in assay [4], above 100 µM; in assay [5] it was above 100 µM. For the same compound, the “SI: selectivity index” value in assay [6] turned out to be 154.40.
On to `O=C(NCCCCCCCCCCNC(=O)c1ccccc1)c1ccccc1` [Compound 11e, N,N′-(Decane-1,10-Diyl)Dibenzamide], for which the IC50 is above 100 µM in assay [1]; 80.5 ± 7.6 µM in assay [2]; 64.3 ± 3.46 µM in assay [3]; above 100 µM in assay [4]; above 100 µM in assay [5]; below 1 µM in assay [6] (Homo sapiens, FaDu). In addition, the IC50 in assay [6] was 0.5 ± 0.06 µM. Also, in assay [6], the “SI: selectivity index” value stood at 161.08.
For `O=C(NCCCCCCCCCCNC(=O)c1ccc2ccccc2c1)c1ccc2ccccc2c1` [Compound 12e, N,N′-(Decane-1,10-Diyl)Bis(2-Naphthamide)], the IC50 was above 100 µM in assay [1]; above 100 µM in assay [2]; 8.77 ± 0.47 µM in assay [3]; above 100 µM in assay [4]; above 100 µM in assay [5]; 1.33 ± 0.07 µM in assay [6] (Homo sapiens, FaDu). The “SI: selectivity index” value in assay [6] is on record as above 75.19.
As for `O=C(NCCCCCCCCCCNC(=O)c1ccncc1)c1ccncc1` [Compound 13e, N,N′-(Decane-1,10-Diyl)Diisonicotinamide], the IC50 is above 100 µM in assay [1]; above 100 µM in assay [2]; above 100 µM in assay [3]; above 100 µM in assay [4]; above 100 µM in assay [5]; 48.3 ± 3.17 µM in assay [6] (Homo sapiens, FaDu). The “SI: selectivity index” value in assay [6] is above 2.07.
In the case of `O=C(NCCCCCCCCCCNC(=O)c1ccco1)c1ccco1` [Compound 14e, N,N′-(Decane-1,10-Diyl)Bis(Furan-2-Carboxamide)], the IC50 in assay [1] was above 100 µM; in assay [2] it was 19.8 ± 1.41 µM; in assay [3], 44.37 ± 0.29 µM; in assay [4] it was 97.8 ± 1.55 µM; in assay [5] it was above 100 µM; in assay [6] (Homo sapiens, FaDu) it was 6.33 ± 0.65 µM. Also, the “SI: selectivity index” value in assay [6] is listed as 3.13.
